Results: ChEMBL document CHEMBL5291721, “A preclinical secondary pharmacology resource illuminates target-adverse drug reaction associations of marketed drugs” (Nat Commun, 2023)

Legend:
[1] = biological target: T1, Equilibrative nucleoside transporter 1 (Homo sapiens, UniProt Q99808)
T1 sequence (Q99808 whole entry): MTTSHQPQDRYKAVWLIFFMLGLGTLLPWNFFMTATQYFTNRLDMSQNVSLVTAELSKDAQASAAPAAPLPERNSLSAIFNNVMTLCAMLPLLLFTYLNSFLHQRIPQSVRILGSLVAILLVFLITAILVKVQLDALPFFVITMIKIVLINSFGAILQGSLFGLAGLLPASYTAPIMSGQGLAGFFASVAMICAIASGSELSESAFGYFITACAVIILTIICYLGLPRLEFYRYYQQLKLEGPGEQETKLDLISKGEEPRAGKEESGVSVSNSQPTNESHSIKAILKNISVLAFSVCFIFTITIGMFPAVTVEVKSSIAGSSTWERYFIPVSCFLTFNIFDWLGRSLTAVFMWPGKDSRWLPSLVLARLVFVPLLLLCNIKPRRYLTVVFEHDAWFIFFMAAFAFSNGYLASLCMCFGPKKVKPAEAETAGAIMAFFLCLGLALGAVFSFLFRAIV

Cannabinoid receptor 1 = Cannabinoid receptor 1 (Homo sapiens, UniProt P21554); type: functional, cell-based
Sequence of Cannabinoid receptor 1 (P21554 whole entry): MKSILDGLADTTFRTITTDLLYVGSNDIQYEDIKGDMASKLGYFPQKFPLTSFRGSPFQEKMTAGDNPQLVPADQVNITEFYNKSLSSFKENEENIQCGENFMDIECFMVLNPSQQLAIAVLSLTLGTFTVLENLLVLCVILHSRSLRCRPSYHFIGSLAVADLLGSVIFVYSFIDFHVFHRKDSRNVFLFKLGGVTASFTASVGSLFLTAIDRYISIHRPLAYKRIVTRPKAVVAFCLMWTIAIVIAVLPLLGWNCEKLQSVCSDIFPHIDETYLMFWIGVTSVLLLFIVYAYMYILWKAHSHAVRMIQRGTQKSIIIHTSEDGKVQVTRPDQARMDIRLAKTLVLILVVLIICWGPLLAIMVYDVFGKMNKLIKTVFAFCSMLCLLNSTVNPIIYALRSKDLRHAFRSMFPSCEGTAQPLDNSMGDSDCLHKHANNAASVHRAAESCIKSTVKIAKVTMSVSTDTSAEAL

Adenosine receptor A3 = biological target: T2, Adenosine receptor A3 (Homo sapiens, UniProt P0DMS8)
T2 sequence (P0DMS8 whole entry): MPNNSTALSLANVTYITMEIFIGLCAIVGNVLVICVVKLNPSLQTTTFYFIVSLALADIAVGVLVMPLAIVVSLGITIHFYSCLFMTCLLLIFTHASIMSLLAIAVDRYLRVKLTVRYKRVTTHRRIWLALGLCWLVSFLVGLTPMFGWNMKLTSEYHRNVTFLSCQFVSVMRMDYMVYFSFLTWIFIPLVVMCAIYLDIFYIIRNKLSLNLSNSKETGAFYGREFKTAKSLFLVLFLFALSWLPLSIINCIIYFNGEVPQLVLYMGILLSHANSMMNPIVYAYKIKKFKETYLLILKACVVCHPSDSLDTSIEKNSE

Vasopressin V1a receptor = Vasopressin V1a receptor (Homo sapiens, UniProt P37288)
Sequence of Vasopressin V1a receptor (P37288 whole entry): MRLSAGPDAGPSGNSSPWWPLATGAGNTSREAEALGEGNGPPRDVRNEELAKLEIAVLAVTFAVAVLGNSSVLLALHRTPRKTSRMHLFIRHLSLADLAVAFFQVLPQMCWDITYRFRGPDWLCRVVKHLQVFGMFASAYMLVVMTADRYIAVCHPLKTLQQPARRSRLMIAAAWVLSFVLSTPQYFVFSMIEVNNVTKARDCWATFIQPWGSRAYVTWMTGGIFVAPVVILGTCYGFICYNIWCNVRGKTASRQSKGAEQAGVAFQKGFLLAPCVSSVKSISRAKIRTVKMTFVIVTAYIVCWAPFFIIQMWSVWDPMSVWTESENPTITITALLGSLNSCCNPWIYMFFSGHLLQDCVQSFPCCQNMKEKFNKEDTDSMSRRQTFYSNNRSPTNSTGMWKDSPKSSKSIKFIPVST

Thromboxane A2 receptor = biological target: T3, Thromboxane A2 receptor (Homo sapiens, UniProt P21731)
T3 sequence (P21731 whole entry): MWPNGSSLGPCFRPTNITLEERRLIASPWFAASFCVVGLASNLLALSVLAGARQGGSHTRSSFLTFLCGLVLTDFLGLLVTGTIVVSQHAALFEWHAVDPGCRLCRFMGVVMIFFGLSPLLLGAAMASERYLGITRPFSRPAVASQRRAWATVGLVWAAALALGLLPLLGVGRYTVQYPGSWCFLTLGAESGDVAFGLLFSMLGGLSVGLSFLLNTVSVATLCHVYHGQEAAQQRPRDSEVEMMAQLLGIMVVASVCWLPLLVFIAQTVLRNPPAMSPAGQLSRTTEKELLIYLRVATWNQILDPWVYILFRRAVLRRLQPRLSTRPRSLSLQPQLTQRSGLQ

[2] = biological target: T4, Alpha-2A adrenergic receptor (Homo sapiens, UniProt P08913); type: functional, cell-based
T4 sequence (P08913 whole entry): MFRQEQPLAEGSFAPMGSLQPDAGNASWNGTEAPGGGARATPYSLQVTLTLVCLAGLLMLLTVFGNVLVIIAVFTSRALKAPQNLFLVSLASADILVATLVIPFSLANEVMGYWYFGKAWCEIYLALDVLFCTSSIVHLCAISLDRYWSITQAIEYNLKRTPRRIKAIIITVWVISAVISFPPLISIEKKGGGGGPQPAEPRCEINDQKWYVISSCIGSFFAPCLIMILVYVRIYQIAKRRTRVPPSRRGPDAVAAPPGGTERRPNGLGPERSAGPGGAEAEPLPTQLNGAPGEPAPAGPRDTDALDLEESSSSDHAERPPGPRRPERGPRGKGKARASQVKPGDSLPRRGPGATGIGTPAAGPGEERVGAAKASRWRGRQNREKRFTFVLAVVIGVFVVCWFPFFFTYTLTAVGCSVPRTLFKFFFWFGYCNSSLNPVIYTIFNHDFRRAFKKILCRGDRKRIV

[3] = biological target: Kappa-type opioid receptor (Homo sapiens, UniProt P41145)
Sequence of Kappa-type opioid receptor (P41145 whole entry): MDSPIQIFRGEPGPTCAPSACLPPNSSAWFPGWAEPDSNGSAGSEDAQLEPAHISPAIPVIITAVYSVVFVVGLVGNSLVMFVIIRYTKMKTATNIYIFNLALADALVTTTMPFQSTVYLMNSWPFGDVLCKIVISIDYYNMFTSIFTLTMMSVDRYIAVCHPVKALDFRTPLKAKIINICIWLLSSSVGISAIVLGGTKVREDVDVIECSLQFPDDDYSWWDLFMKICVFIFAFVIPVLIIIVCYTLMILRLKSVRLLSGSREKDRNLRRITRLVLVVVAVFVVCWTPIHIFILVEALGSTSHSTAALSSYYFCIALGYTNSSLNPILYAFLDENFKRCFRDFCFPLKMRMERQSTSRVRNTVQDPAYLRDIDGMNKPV

Progesterone receptor = biological target: T5, Progesterone receptor (Homo sapiens, UniProt P06401); type: functional
T5 sequence (P06401 whole entry): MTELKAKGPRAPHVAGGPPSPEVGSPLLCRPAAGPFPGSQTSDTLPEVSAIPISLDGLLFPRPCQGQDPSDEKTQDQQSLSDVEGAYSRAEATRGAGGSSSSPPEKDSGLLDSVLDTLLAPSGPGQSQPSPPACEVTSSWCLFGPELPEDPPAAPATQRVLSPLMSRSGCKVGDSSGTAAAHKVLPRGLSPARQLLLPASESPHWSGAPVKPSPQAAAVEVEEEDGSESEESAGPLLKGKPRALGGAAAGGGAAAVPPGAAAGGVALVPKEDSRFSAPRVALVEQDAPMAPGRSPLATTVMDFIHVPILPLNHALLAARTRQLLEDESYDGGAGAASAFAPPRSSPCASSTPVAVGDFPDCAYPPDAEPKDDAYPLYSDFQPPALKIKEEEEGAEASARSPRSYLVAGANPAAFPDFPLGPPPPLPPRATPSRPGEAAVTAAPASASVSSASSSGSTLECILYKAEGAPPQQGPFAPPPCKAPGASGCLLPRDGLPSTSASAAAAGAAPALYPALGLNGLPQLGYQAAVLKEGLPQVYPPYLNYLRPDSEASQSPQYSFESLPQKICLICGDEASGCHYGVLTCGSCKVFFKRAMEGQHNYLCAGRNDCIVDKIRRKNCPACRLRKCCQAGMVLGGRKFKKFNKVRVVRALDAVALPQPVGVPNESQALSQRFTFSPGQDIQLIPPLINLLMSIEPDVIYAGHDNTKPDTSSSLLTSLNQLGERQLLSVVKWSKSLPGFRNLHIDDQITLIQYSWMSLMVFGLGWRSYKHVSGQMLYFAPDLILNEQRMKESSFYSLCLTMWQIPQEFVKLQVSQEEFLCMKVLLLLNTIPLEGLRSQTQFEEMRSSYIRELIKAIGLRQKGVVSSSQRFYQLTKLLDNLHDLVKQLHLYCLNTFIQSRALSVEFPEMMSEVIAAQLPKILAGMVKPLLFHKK
Further: assay procedure not described here.

| Compound | AC50 [1] | AC50 (Cannabinoid receptor 1) | AC50 (Adenosine receptor A3) | AC50 (Vasopressin V1a receptor) | AC50 (Thromboxane A2 receptor) | AC50 [2] | AC50 [3] | AC50 (Progesterone receptor) |
| --- | --- | --- | --- | --- | --- | --- | --- | --- |
| COc1ccc2c3c1O[C@H]1[C@@H](O)C=C[C@H]4[C@@H](C2)N(C)CC[C@@]341 [CODEINE] | > 30 µM | > 30 µM | > 30 µM | > 30 µM | > 30 µM | > 10 µM |  |  |
| CN1CCC(=C2c3ccccc3CCc3sccc32)CC1 [PIZOTYLINE] | > 30 µM | > 30 µM | > 30 µM | > 30 µM | > 30 µM | 3.97 µM | 1.57 µM |  |
| CNS(=O)(=O)Cc1ccc2[nH]cc(CCN(C)C)c2c1 | > 30 µM | > 30 µM | > 30 µM | > 10 µM | > 30 µM | > 30 µM | > 30 µM |  |
| C[C@]1(O)CC[C@H]2[C@@H]3CCC4=CC(=O)CC[C@]4(C)[C@@]3(F)[C@@H](O)C[C@@]21C [FLUOXYMESTERONE] | > 10 µM |  | > 10 µM | > 10 µM | > 10 µM | > 10 µM | > 10 µM | 0.074 µM |
| C#C[C@]1(O)CC[C@H]2[C@@H]3CCc4cc(OC5CCCC5)ccc4[C@H]3CC[C@@]21C [QUINESTROL] | > 10 µM |  | > 10 µM | > 10 µM | > 10 µM | > 10 µM | > 10 µM | 0.221 µM |
| O=C(O)C[C@H](O)C[C@H](O)/C=C/c1c(C2CC2)nc2ccccc2c1-c1ccc(F)cc1 [PITAVASTATIN] | > 10 µM |  | > 30 µM | > 10 µM | > 10 µM | > 10 µM | > 10 µM | > 30 µM |
| CN1CCN(CC/C=C2/c3ccccc3Sc3ccc(S(=O)(=O)N(C)C)cc32)CC1 [THIOTHIXENE] | > 30 µM | > 30 µM | > 30 µM | > 10 µM | > 30 µM | 5.9 µM | 11.6 µM |  |
| CCCC(C)C1(CC)C(=O)NC(=O)NC1=O (stereo not given) [PENTOBARBITAL] | > 10 µM |  | > 10 µM | > 10 µM | > 10 µM | > 10 µM | > 10 µM | > 10 µM |
| CC[C@@H]1C(=O)OC[C@@H]1Cc1cncn1C [PILOCARPINE] | > 30 µM | > 30 µM | > 30 µM | > 30 µM | > 30 µM | > 10 µM | > 10 µM |  |
| CCCCc1ncc(/C=C(\Cc2cccs2)C(=O)O)n1Cc1ccc(C(=O)O)cc1 [EPROSARTAN] | > 10 µM | > 30 µM | > 10 µM | > 30 µM | > 10 µM | > 10 µM | > 10 µM |  |
| CC1(C)O[C@@H]2C[C@H]3[C@@H]4CCC5=CC(=O)C=C[C@]5(C)[C@H]4[C@@H](O)C[C@]3(C)[C@]2(C(=O)CO)O1 [DESONIDE] | > 10 µM |  | > 10 µM | > 10 µM | > 10 µM | > 10 µM | > 10 µM | 0.065 µM |
| O=C(O)C1=C(CSc2nnnn2CS(=O)(=O)O)CS[C@@H]2[C@H](NC(=O)[C@H](O)c3ccccc3)C(=O)N12 [CEFONICID] | > 30 µM |  | > 30 µM | > 30 µM | > 30 µM | > 30 µM | > 30 µM | > 30 µM |
| COC(=O)[C@H]1[C@H]2C[C@@H]3c4[nH]c5cc(OC)ccc5c4CCN3C[C@H]2C[C@@H](OC(=O)/C=C/c2cc(OC)c(OC)c(OC)c2)[C@@H]1OC [RESCINNAMINE] | > 30 µM |  | > 30 µM | > 10 µM | > 10 µM | > 10 µM | > 30 µM | > 10 µM |
| Nc1nc(/C(=C/CC(=O)O)C(=O)N[C@@H]2C(=O)N3C(C(=O)O)=CCS[C@H]23)cs1 [CEFTIBUTEN] | > 30 µM |  | > 30 µM | > 30 µM | > 30 µM | > 30 µM | > 30 µM | > 30 µM |
| CCCC(=O)O[C@]1(C(=O)CO)CC[C@H]2[C@@H]3CCC4=CC(=O)CC[C@]4(C)[C@H]3[C@@H](O)C[C@@]21C [HYDROCORTISONE BUTYRATE] | > 10 µM |  | > 10 µM | > 10 µM | > 10 µM | > 10 µM | > 10 µM | 0.042 µM |
| C[C@H](CSC(=O)c1ccccc1)C(=O)N1C[C@@H](Sc2ccccc2)C[C@H]1C(=O)O [ZOFENOPRIL] | > 10 µM |  | > 10 µM | > 10 µM | > 10 µM | > 10 µM | > 10 µM | > 10 µM |
| CCN1CCN(C(=O)N[C@@H](C(=O)N[C@@H]2C(=O)N3C(C(=O)O)=C(CSc4nnnn4C)CS[C@H]23)c2ccc(O)cc2)C(=O)C1=O [CEFOPERAZONE] | > 30 µM | > 30 µM | > 30 µM | > 30 µM |  | > 30 µM | > 10 µM |  |
| CC(C)=CCC/C(C)=C/C=C/C(C)=C/C=C/C(C)=C/C=C/C=C(C)/C=C/C=C(C)/C=C/C=C(\C)CCC=C(C)C [LYCOPENE] | > 30 µM |  | > 30 µM | > 30 µM | > 30 µM | > 30 µM | > 30 µM | > 30 µM |
| CN1C(=O)C(O)N=C(c2ccccc2)c2cc(Cl)ccc21 (stereo not given) [TEMAZEPAM] | > 30 µM | > 30 µM | > 30 µM | > 10 µM | > 30 µM | > 10 µM | 9.19 µM |  |
| COC(=O)C1=C(C)NC(C)=C(C(=O)OC2CCCN(Cc3ccccc3)C2)C1c1cccc([N+](=O)[O-])c1 (stereo not given) [BENIDIPINE] | 8.2 µM | 16 µM | 3.5 µM | > 30 µM | > 30 µM | > 30 µM | 1.5 µM |  |
| C[C@H](N)[C@H](O)c1cccc(O)c1 [METARAMINOL] | > 10 µM |  | > 10 µM | > 10 µM | > 10 µM | > 10 µM | > 10 µM | > 10 µM |
